# Test results from patent US10934439B2, “Additives for coating compositions and related methods” (Massachusetts Institute of Technology, priority 2017, dated 2021).
# Assays:
# [1] = Potentiodynamic polarization (Tafel tests) of galvanized steel in 3.5% NaCl with additives; details: for Corrosion rate / Icorr (corrosion current density) / IE, inhibitor efficiency from Tafel: 25° C; for formation of white rust on the steel working electrode: millimolar or higher concentrations in 3.5% NaCl; for corrosion inhibitor efficiency compared with other additives: pH 5.3, equivalent concentrations
# Description: The electrochemical open-to-air cell (PTC1™ Paint Test Cell, Gamry Instruments, Warminster, Pa.) was utilized for the potentiodynamic polarization (Tafel tests) and electrochemical impedance spectroscopy experiments. The electrochemical cell was composed of working electrode made of galvanized steel (zinc-galvanized sheets of type B carbon steel, ASTM A653, total thickness 0.305 mm, working area 2.2 cm^2 or 15.2 cm^2, McMaster Carr Supply Co., Robbinsvill, N.J.), reference Ag/AgCl electrode, and Pt wire auxiliary electrode (BASK) Corp., West Lafayette, Ind.). Prior to the immersion in the electrolyte (3.5% NaCl, pH adjusted to 5.25-5.3, 40 mL), the working electrodes were washed by acetone, ethanol, dried by nitrogen flow and polished with P1200 grit.^24 The working electrode was immersed into electrolyte containing the tested compound at a given concentration with desired pH at 25° C. for 60 min prior to each measurement. […] The carbon steel used herein was coated with the average minimum coating thickness per ASTM A653 being 2.0 mils (0.0508 mm) per surface. Tafel tests (ASTM GS) were conducted using a Parstat PMC-2000 multichannel potentiostat equipped with Versa Studio 2.50.3 software (Princeton Applied Research, Oak Ridge, Tenn.). Tafel tests were modeled with a ZSIMPWIN™ software for complex nonlinear least square analyses fitting the circuit models of the electrode interface to the Nyquist amplitude of 10 mV at the open circuit potential in the frequency range of 100 kHz to 0.2 Hz. Parameters for Tafel tests were as follows: initial potential, −1.25 V (vs reference); final potential, −0.45 V; scan properties: step height, 0.5 mV, step time, 2 s. In a series of measurements with the corrosion inhibiting additives, a range of the additive concentrations was studied and the scan range was set from 150 mV below the open circuit voltage (OCV) to 200 mV more positive than the OCV, with three measurements for each condition. The range in these measurements was limited in order to minimize the cathodic polarization causing local pH changes.
# In the vicinity of Ecorr both currents are present in the specimen, but experimentally it is possible to measure only the net current. The net current has a single measurable polarity, either positive or negative. At Ecorr the net measured current is exactly zero. The corrosion current (icorr) is expressed as (for definitions, see FIG. 13):
# [formula] where E.W. is the equivalent weight of the corroding species, g. In this case, the corroding species is Zn, so E.W.=32.7 g. Icorr, is the corrosion current density in μA/cm^2, and d is the density of the corroding species. Density of zinc is 7.140 g/cm^3.
# From the icorr values, inhibitor efficiencies (IE, %) were calculated as (equation (1)): […]
# [2] = Electrochemical impedance spectroscopy (EIS) of galvanized steel in 3.5% NaCl with additives; details: for η, inhibitor efficiency from EIS: 3.5% NaCl, 25° C, pH 5.6, additive 10 mg/mL
# Protocol: The electrochemical open-to-air cell (PTC1™ Paint Test Cell, Gamry Instruments, Warminster, Pa.) was utilized for the potentiodynamic polarization (Tafel tests) and electrochemical impedance spectroscopy experiments. […] Tafel tests (ASTM GS) were conducted using a Parstat PMC-2000 multichannel potentiostat equipped with Versa Studio 2.50.3 software (Princeton Applied Research, Oak Ridge, Tenn.). Tafel tests were modeled with a ZSIMPWIN™ software for complex nonlinear least square analyses fitting the circuit models of the electrode interface to the Nyquist amplitude of 10 mV at the open circuit potential in the frequency range of 100 kHz to 0.2 Hz. […] In a series of measurements with the corrosion inhibiting additives, a range of the additive concentrations was studied and the scan range was set from 150 mV below the open circuit voltage (OCV) to 200 mV more positive than the OCV, with three measurements for each condition. The range in these measurements was limited in order to minimize the cathodic polarization causing local pH changes.
# EIS (FIGS. 17A and 17B) was applied to further reveal the effects of the corrosion inhibitors on the electrolyte-galvanized steel electrode interface and to complement the potentiodynamic polarization measurements. The qualitative information was obtained using fit analysis embedded into the software used to model the spectra, employing electrical equivalent circuits (EECs).
# Elements of the EECs are described in the legend to FIGS. 17A and 17B. The corrosion resistance of the galvanized steel surface in the presence of the corrosion inhibitor represents the RCT+Rp sum. In the control measurement without the additive, the spectrum with one time constant EEC was used, wherein the electrode resistance is represented by RCT.
# EIS measurements enabled estimation of the corrosion inhibition efficiency: […]
# [3] = cited from earlier work
# [4] = cited from earlier work; remark: listed apart in the source
# [5] = 44.7 mM, electrolyte containing 0.0165 wt % NaCl (pH not stated); cited from earlier work
# [6] = Hygroscopicity on standing in an open jar at 80% relative humidity; assay type: physicochemical; details: converted to pasty solid
# Protocol: The crystals were hygroscopic and converted to caramel-like, pasty solid on standing in an open jar at 80% relative humidity. […] Thermogravimetric analysis (TGA) and simultaneous differential scanning calorimetry (DSC) were conducted using a Q600 TGA/DSC instrument (TA Instruments, Inc.). Samples were subjected to heating scans (10 or 20° C./min) in a temperature ramp mode under nitrogen atmosphere.
# [7] = Solubility / dissolution testing
# [8] = 3.5% NaCl, pH 5.3, [Mg2+] 71.8, [Ac−] 144, [TDPA] 0 meq/L
# [9] = 3.5% NaCl, pH 5.6, additive 10 mg/mL
# [10] = 3.5% NaCl, pH 2.1, [TDPA] 94.8 meq/L
# [11] = 3.5% NaCl, pH 5.3, [TDPA] 47.4 meq/L
# [12] = 3.5% NaCl, pH 5.3, [TDPA] 94.8 meq/L
# [13] = 3.5% NaCl, pH 5.3, [Mg2+] 9.93, [Ac−] 9.93, [TDPA] 15.9 meq/L
# [14] = 3.5% NaCl, pH 5.3, [Mg2+] 41.9, [Ac−] 41.9, [TDPA] 67.1 meq/L
# [15] = 3.5% NaCl, pH 5.3, [Mg2+] 62.9, [Ac−] 62.9, [TDPA] 101 meq/L
# [16] = 3.5% NaCl, pH 5.3, [Mg2+] 49.8, [TDPA] 49.8 meq/L
# [17] = 3.5% NaCl, pH 5.3, [Mg2+] 167, [TDPA] 33.5 meq/L
compound,measurement,setting,value
"CC(=O)[O-].CC(=O)[O-].O.O.O.O.[Mg+2] [MgAc2, magnesium acetate tetrahydrate, reference compound]",Corrosion rate,[1]; [8],37.0 mpy
same,Icorr (corrosion current density),[1]; [8],62.1 μA/cm^2
same,Corrosion rate,[1]; [9],8.03 mpy
same,"IE, inhibitor efficiency from Tafel",[1]; [9],48%
same,Icorr (corrosion current density),[1]; [9],13.5 μA/cm^2
same,"η, inhibitor efficiency from EIS",[2],41%
"O=C(O)CCSCCC(=O)O [TDPA, 3,3′-thiodipropionic acid, reference compound]",pKa,[3],4.11
same,Corrosion rate,[1]; [10],474 mpy
same,Icorr (corrosion current density),[1]; [10],796 μA/cm^2
same,Corrosion rate,[1]; [11],26.5 mpy
same,Icorr (corrosion current density),[1]; [11],44.5 μA/cm^2
same,Corrosion rate,[1]; [12],16.9 mpy
same,Icorr (corrosion current density),[1]; [12],28.4 μA/cm^2
same,Corrosion rate,[1]; [9],2.47 mpy
same,"IE, inhibitor efficiency from Tafel",[1]; [9],84%
same,Icorr (corrosion current density),[1]; [9],4.15 μA/cm^2
same,formation of white rust on the steel working electrode,[1],visibly reduced the formation of white rust
same,"η, inhibitor efficiency from EIS",[2],81%
same,solubility in solvents,[4],"soluble in water, acetone, and alcohol"
CCCCCCCCCC(=O)O [decanoic acid],inhibition efficiency η,[5],83.5%
magnesium acetate thiodipropionate [MgAcTDPA],Corrosion rate,[1]; [13],29.4 mpy
same,Icorr (corrosion current density),[1]; [13],49.3 μA/cm^2
same,Corrosion rate,[1]; [14],7.9 mpy
same,Icorr (corrosion current density),[1]; [14],13.3 μA/cm^2
same,Corrosion rate,[1]; [15],1.85 mpy
same,Icorr (corrosion current density),[1]; [15],3.12 μA/cm^2
same,Corrosion rate,[1]; [9],2.41 mpy
same,"IE, inhibitor efficiency from Tafel",[1]; [9],84%
same,Icorr (corrosion current density),[1]; [9],4.06 μA/cm^2
same,corrosion inhibitor efficiency compared with other additives,[1]; 3.5% NaCl,the most efficient corrosion inhibitor
same,formation of white rust on the steel working electrode,[1],visibly reduced the formation of white rust
same,"η, inhibitor efficiency from EIS",[2],80%
same,hygroscopicity of the crystals,[6],hygroscopic
same,concentration on dissolution in warm ethanol,[7]; warm ethanol,at least 10 wt %
magnesium thiodipropionate [MgTDPA1:1],effect on Icorr in Tafel plots (FIG. 16),"[1]; 10 mg/mL in 3.5% NaCl, pH 5.6, versus no additive and other additives",reduced the Icorr values the most
same,"breakdown potentials (instability of the oxide film, pitting corrosion)",[1]; 1-2 mM concentrations and above in the 3.5% NaCl electrolyte,increased
same,Corrosion rate,[1]; [16],21.1 mpy
same,Icorr (corrosion current density),[1]; [16],35.5 μA/cm^2
same,Corrosion rate,[1]; [9],1.07 mpy
same,"IE, inhibitor efficiency from Tafel",[1]; [9],93%
same,Icorr (corrosion current density),[1]; [9],1.79 μA/cm^2
same,corrosion inhibitor effectiveness compared with controls (data in Table 1),"[1]; galvanized steel, 3.5% NaCl",more effective corrosion inhibitor for galvanized steel than either TDPA or MgAc2
same,formation of white rust on the steel working electrode,[1],visibly reduced the formation of white rust
same,increase in total resistance Ri=RCT+Rp versus Ro=RCT without inhibitor,"[2]; 10 mg/mL in 3.5% NaCl, pH 5.6, 25° C",283 fold
same,"η, inhibitor efficiency from EIS",[2],99%
magnesium thiodipropionate [MgTDPA5:1],Corrosion rate,[1]; [17],50.7 mpy
same,Icorr (corrosion current density),[1]; [17],85.1 μA/cm^2
same,Corrosion rate,[1]; [9],4.65 mpy
same,"IE, inhibitor efficiency from Tafel",[1]; [9],69%
same,Icorr (corrosion current density),[1]; [9],7.82 μA/cm^2
same,corrosion inhibitor efficiency compared with other additives,[1]; 3.5% NaCl,quite effective in reducing the corrosion rate
same,"η, inhibitor efficiency from EIS",[2],72%
same,solubility in the electrolyte,"[7]; 3.5% NaCl electrolyte, yielded a suspension",only fractionally soluble
